Assay results taken from patent publication US12083227B2, “Solid pharmaceutical formulations for treating endometriosis, uterine fibroids, polycystic ovary syndrome or adenomyosis” (priority 2017, dated 2024).

Legend:
[1] = system: ovulation and endometrial thickness in healthy women; test: 3-menstrual cycle study in healthy women; assay type: in vivo, human; conditions: transvaginal ultrasound, 150 mg QD and 200 mg BID
[2] = biological target: T1, organic anion transporting polypeptide (OATP)1B1 (Homo sapiens, UniProt Q9Y6L6); test: substrate status: OATP1B1
T1 sequence (Q9Y6L6 1-691): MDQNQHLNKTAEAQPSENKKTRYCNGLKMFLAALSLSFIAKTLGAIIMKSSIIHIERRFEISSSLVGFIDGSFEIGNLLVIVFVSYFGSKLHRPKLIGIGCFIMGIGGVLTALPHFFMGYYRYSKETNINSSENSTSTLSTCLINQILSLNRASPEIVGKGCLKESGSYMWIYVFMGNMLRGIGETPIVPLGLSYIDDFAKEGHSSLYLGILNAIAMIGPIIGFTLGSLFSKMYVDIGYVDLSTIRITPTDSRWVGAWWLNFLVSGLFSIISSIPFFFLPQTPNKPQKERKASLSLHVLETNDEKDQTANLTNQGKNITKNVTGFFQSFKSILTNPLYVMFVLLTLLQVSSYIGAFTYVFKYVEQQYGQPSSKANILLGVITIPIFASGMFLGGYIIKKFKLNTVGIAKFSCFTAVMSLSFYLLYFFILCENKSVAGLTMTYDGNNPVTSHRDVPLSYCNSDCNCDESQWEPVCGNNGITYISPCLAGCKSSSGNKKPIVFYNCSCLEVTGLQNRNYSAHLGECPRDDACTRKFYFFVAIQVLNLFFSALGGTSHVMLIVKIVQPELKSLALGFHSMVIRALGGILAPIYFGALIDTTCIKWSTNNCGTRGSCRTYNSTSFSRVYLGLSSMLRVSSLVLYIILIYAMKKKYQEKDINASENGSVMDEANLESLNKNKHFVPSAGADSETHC
Excerpt: Elagolix is a substrate of CYP3A, P-gp, and organic anion transporting polypeptide (OATP)1B1. Clinically meaningful interactions are not expected when elagolix is co-administered with drugs that inhibit CYP3A or P-gp.

[3] = acid dissociation constants by potentiometric titration; assay type: physicochemical
Description: The acid dissociation constants were determined by potentiometric titration method. […] The first is XH2+, where the carboxylic acid is not ionized but the secondary amine is; the molecule has an overall +1 charge, and the main species at pHs below 4.0. The second is XH, where both the carboxylic acid and the tertiary amine are ionized. […] The third is X−, where the carboxylic acid is ionized but the tertiary amine is not.

[4] = pharmacokinetics in specific populations (renal and hepatic impairment); assay type: in vivo, human
Excerpt: The mean exposures are similar for women with moderate to severe or end stage renal disease (including women on dialysis) compared to women with normal renal function.
Elagolix exposures (Cmax and AUC) are similar between women with normal hepatic function and women with mild hepatic impairment. Elagolix exposures in women with moderate and severe hepatic impairment are approximately 3-fold and 7-fold, respectively, of exposures from women with normal hepatic function.

[5] = pharmacokinetic properties of elagolix in healthy subjects; assay type: in vivo, human; conditions: minor pathways include CYP2D6, CYP2C8 and UGTs

COc1cccc(-c2c(C)n(Cc3c(F)cccc3C(F)(F)F)c(=O)n(C[C@H](NCCCC(=O)O)c3ccccc3)c2=O)c1F [elagolix, 4-((R)-2-[5-(2-fluoro-3-methoxy-phenyl)-3-(2-fluoro-6-trifluoromethyl-benzyl)-4-methyl-2,6-dioxo-3,6-dihydro-2H-pyrimidin-1-yl]-1-phenyl-ethylamino)-butyric acid]
mean endometrial thickness compared to the pretreatment values [1]: dose dependent decrease
substrate of OATP1B1 [2]: substrate
pKa (B) ([3]; amine): 7.9
pKa (A) ([3]; carboxylic acid): 4.0
exposures in moderate hepatic impairment relative to normal hepatic function ([4]; moderate hepatic impairment): approximately 3 fold
exposures (Cmax and AUC) in renal impairment ([4]; moderate to severe or end stage renal disease vs normal renal function): not altered
exposures in severe hepatic impairment relative to normal hepatic function [4]: approximately 7 fold
exposures in severe hepatic impairment relative to normal hepatic function ([4]; listed as Elagolix): ~7 fold
exposures (Cmax and AUC) in mild hepatic impairment ([4]; vs women with normal hepatic function): similar
Metabolism [5]: CYP3A (major) Minor
